# Results published in patent US20110236885A1 (Academia Sinica, priority 2004, published 2011).
# Several values for one entry are separate records, joined by “and”; a condition that tells them apart may be missing. Equal values may be shown once.
# Legend:
# [1] = test system: Han Chinese patients having warfarin sensitivity and resistance; test: Warfarin maintenance dose and INR in selected Chinese patients with warfarin sensitivity or resistance, by VKORC1 -1639 genotype; type: in vivo, human; conditions: for Dose: individual patients; for dose requirements, mean / dose requirements, range: selected patients
# Source text: (§1) Clinical information (including age, sex, weight, and average daily maintenance dose) was obtained from every participant.
# Primers were specifically designed for the intron-exon junctions, exons and 2 kbps upstream of the transcription start site for both CYP2C9 and VKORC1 using the Primer3 PCR primer program (http://fokker.wi.mit.edu/cgi-bin/primer3/primer3_www.cgi). The primers used to detect variants in the VKORC1 promoter were: 5′-[…] (SEQ ID NO:2; sense strand located 1.5 kb upstream of the transcription start site) and 5′-[…] (SEQ ID NO:3; anti-sense strand located 0.9 kb upstream of the transcription start site). The polymerase chain reactions (PCR) were performed in a final volume of […] containing 0.4 μM of each primer, 10 mM Tris-HCl (pH8.3), 50 mM KCl, 1.5 mM MgCl2, 0.2 mM dNTPs and 1 unit HotStart Taq™ (Qiagen Inc, Valencia, Calif., USA). Amplification conditions consisted of an initial denaturation of 12 min at 96° C., followed by 34 PCR cycles in 30 sec at 96° C., 30 sec at 60° C., 40 sec at 72° C.
# The variants were: 1075 A>C (1359L known as CYP2C9*3), 895 A>G (T299A), and 1145 C>T (P382L).
# We also sequenced the promoter, coding regions, and the exon-intron junctions of the VKORC1 gene.
# [2] = test system: randomly selected Chinese patients receiving warfarin; test: Warfarin maintenance dose and INR in 104 randomly selected Chinese patients receiving warfarin, by VKORC1 -1639 genotype; type: in vivo, human
# Method: as §1
# Briefly, primers and probes were designed using the Spectro[…] software (Sequenom). Multiplex PCR was performed, and unincorporated dNTPs were dephosphorylated using shrimp alkaline phosphatase (Hoffman-LaRoche, Basel, Switzerland), followed by primer extension. The purified primer extension reactions were spotted onto a 384-element silicon chip (SpectroCHIP, Sequenom), analyzed in the Bruker Biflex III MALDI-TOF SpectroREADER mass spectrometer (Sequenom), and the resulting spectrum was processed with SpectroTYPER (Sequenom).
# We analyzed the data regardless of the presence of other confounding variables, such as diet or other medications.
# [3] = heterozygous AG at VKORC1 -1639
compound,measurement,setting,value
"CC(=O)CC(c1ccccc1)c1c(O)c2ccccc2oc1=O (racemic) [warfarin, 4-hydroxy-3-(3-oxo-1-phenylbutyl)-2H-1-benzopyran-2-one]",Dose,"[1]; VKORC1 -1639 AA, warfarin sensitive group (dose ≦1.5 mg/day), average daily maintenance dose",1.43 mg/d and 1.5 mg/d and 0.71 mg/d and 1 mg/d (2×)
same,Dose,"[1]; VKORC1 -1639 AG, warfarin resistant group (dose ≧6 mg/day)",6.07 mg/day and 10 mg/day
same,Dose,"[1]; VKORC1 -1639 GG, warfarin resistant group (dose ≧6 mg/day)",8.57 mg/day and 8.75 mg/day and 10 mg/day
same,"dose requirements, mean",[1]; AA genotype at VKORC1 -1639,1.19 mg/day
same,"dose requirements, range",[1]; AA genotype at VKORC1 -1639,0.71 to 1.50 mg/day
same,"dose requirements, mean",[1]; [3],8.04 mg/day
same,"dose requirements, range",[1]; [3],6.07 to 10 mg/day
same,"dose requirements, mean",[1]; homozygous GG at VKORC1 -1639,9.11 mg/day
same,"dose requirements, range",[1]; homozygous GG at VKORC1 -1639,8.57 to 10 mg/day
same,"warfarin dose, upper limit observed",[2]; none of the randomly selected patients had a greater dose,≤ 6 mg/day
same,maintenance dose,"[2]; randomly selected patients, AA genotype",2.61+/−1.10 my/day
same,"Warfarin dose,","[2]; randomly selected patients, VKORC1 -1639 AG + GG (n = 21), mean ± SD",3.81 ± 1.24 mg/day and 3.81 mg/day
